Patent US20100168090A1, “Active Ingredient Combinations With Insecticidal and Acaricidal Properties” (BAYER CROPSCIENCE AG, priority 2006, published 2010)

Experiments:
Type in all cases: in vivo
[1] = test system: green peach aphid (Myzus persicae); test: Myzus persicae test (cabbage leaves dipped); conditions: single active compound; for Kill in % after 1 d: Table A 1
Excerpt: (§1) The expected action for a given combination of two active compounds can be calculated as follows, according to S. R. Colby, Weeds 15 (1967), 20-22:
(§2) If • X is the kill rate, expressed as a percentage of the untreated control, when employing active compound A at an application rate of m g/ha or in a concentration of m ppm, • Y is the kill rate, expressed as a percentage of the untreated control, when employing active compound B at an application rate of n g/ha or in a concentration of n ppm and • E is the kill rate, expressed as a percentage of the untreated control, when employing active compounds A and B at application rates of m and n g/ha or in a concentration of m and n ppm, then
(§3) If the actual kill rate exceeds the calculated value, the kill of the combination is superadditive, i.e. a synergistic effect is present. In this case, the actually observed kill rate must exceed the value calculated using the above formula for the expected kill rate (E).
(§4) Solvent: 7 parts by weight of dimethylformamide Emulsifier: 2 parts by weight of alkylaryl polyglycol ether
(§5) To produce a suitable preparation of active compound, 1 part by weight of active compound is mixed with the stated amounts of solvent and emulsifier, and the concentrate is diluted with emulsifier-containing water to the desired concentration.
Cabbage leaves (Brassica oleracea) which are heavily infested by the green peach aphid (Myzus persicae) are treated by being dipped into the active compound preparation of the desired concentration.
(§6) After the desired period of time, the kill in % is determined. 100% means that all aphids have been killed; 0% means that none of the aphids have been killed. The kill rates determined are entered into Colby's formula.

[2] = test system: larvae of the mustard beetle (Phaedon cochleariae); test: Phaedon cochleariae larvae test (cabbage leaves dipped); conditions: single active compound
Excerpt: as §1, §2, §3, §4
To produce a suitable preparation of active compound, 1 part by weight of active compound is mixed with the stated amounts of solvents and emulsifier, and the concentrate is diluted with emulsifier-containing water to the desired concentration.
Cabbage leaves (Brassica oleracea) are treated by being dipped in the active compound preparation of the desired concentration and are populated with larvae of the mustard beetle (Phaedon cochleariae) while the leaves are still moist.
After the desired period of time, the kill in % is determined. 100% means that all beetle larvae have been killed; 0% means that none of the beetle larvae have been killed. The kill rates determined are entered into Colby's formula.

[3] = test system: cotton aphid (Aphis gossypii); test: Aphis gossypii test (cotton leaves dipped); conditions: single active compound
Excerpt: as §1, §2, §3, §4, §5
Cotton leaves (Gossypium herbaceum) which are heavily infested by the cotton aphid (Aphis gossypii) are treated by being dipped into the active compound preparation of the desired concentration.
as §6

C/C(=N\C#N)N(C)Cc1ccc(Cl)nc1 [acetamiprid (II-e), acetamiprid]
Kill in % after 6 d ([1]; Table A 3, 0.16 ppm): 10%

O=[N+]([O-])NC1=NCCN1Cc1ccc(Cl)nc1 [imidacloprid (II-a), imidacloprid]
Kill in % after 6 d ([2]; 0.8 ppm): 0%
Kill in % after 1 d ([1]; 0.16 ppm): 15%
Kill in % after 6 d ([1]; Table A 2, 0.032 ppm): 5%

O=[N+]([O-])/N=C1\NCCN1Cc1cnc(Cl)s1 [imidaclothiz (II n), imidaclothiz]
Kill in % after 6 d ([1]; Table A 3, 0.16 ppm): 0%

COC1CCC2(CC1)NC(=O)C(c1cc(C)ccc1C)=C2O (stereo not shown) [compound (I-1-a)]
Kill in % after 6 d ([2]; 20 ppm): 20%
Kill in % after 6 d ([1]; Table A 2, 0.8 ppm): 0%

CN/C(=N\[N+](=O)[O-])NCc1cnc(Cl)s1 [clothianidin (IIm), clothianidin]
Kill in % after 6 d ([2]; 0.8 ppm): 25%

N#C/N=C1\SCCN1Cc1ccc(Cl)nc1 [thiacloprid (IIk), thiacloprid]
Kill in % after 6 d ([2]; 0.8 ppm): 0%

CCOC(=O)OC1=C(c2cc(C)ccc2C)C(=O)N[C@]12CC[C@@H](OC)CC2 [compound (I-2)]
Kill in % after 1 d ([3]; 20 ppm): 5%
Kill in % after 6 d ([2]; 20 ppm): 35%
Kill in % after 1 d ([1]; 4 ppm): 0%
Kill in % after 6 d ([1]; Table A 3, 4 ppm): 80%

CO[C@H]1CC[C@]2(CC1)NC(=O)C(c1cc(C)ccc1C)=C2O [compound (I-1)]
Kill in % after 6 d ([2]; 20 ppm): 10%
Kill in % after 6 d ([1]; Table A 2, 0.8 ppm): 5%

CCOC(=O)OC1=C(c2cc(C)ccc2C)C(=O)NC12CCC(OC)CC2 (stereo not shown) [compound (I-2-a)]
Kill in % after 1 d ([3]; 20 ppm): 10%
Kill in % after 6 d ([2]; 20 ppm): 10%
Kill in % after 1 d ([1]; 4 ppm): 0%
Kill in % after 6 d ([1]; Table A 3, 4 ppm): 85%

CN1COCN(Cc2cnc(Cl)s2)/C1=N\[N+](=O)[O-] [thiamethoxam (IIg), thiamethoxam]
Kill in % after 6 d ([2]; 0.8 ppm): 0%

CN/C(=N/CC1CCOC1)N[N+](=O)[O-] (stereo not shown) [dinotefuran (II l), dinotefuran]
Kill in % after 1 d ([3]; 4 ppm): 30%
Kill in % after 6 d ([1]; Table A 3, 0.16 ppm): 0%
